Experimental data published in US5869336A, “Recombinant enzymatically active calpain expressed in a baculovirus system” (Cephalon, Inc., priority 1997, dated 1999).
Read-outs that look alike come from different tables or passages of the source. Where a SMILES comes first, the peptide text is derived from it. [ ]: non-standard residue; d: D form. The star is where a group is joined. Sta = CC(C)C[C@H](N)[C@@H](O)CC(=O)O; Isovaleryl = CC(C)CC(=O)*; Nle = CCCC[C@H](N)C(=O)O

Columns and labels:
native human calpain I [1] = assay: Calcium activation of native calpain (Succ-Leu-Tyr-MNA hydrolysis); assay type: biochemical; details: pH 7.3, 1 mM Succ-Leu-Tyr-MNA, approximation based on Kd of EGTA, read-out: concentration of calcium required to give 1/2 Vmax
Protocol: (§1) To determine the calcium concentration required for enzyme activity, tests were performed essentially as described by Kitahara et al., J. Biochem., 95:1759-1766 (1984). First, enzyme preparations were dialyzed overnight against 110 mM imidazole-HCl/1 mM EGTA buffer at pH 7.3 containing 5 mM β-mercaptoethanol. Ten-fold concentrated Ca^2+ /EGTA buffers were prepared by adding varying amounts of CaCl2 to the imidazole/EGTA buffer. Twenty μl of each buffer was put into three wells of a 96 well plate. Dilutions of dialyzed enzyme were made into the imidazole/EGTA buffer containing 1 mM Succ-Leu-Tyr-MNA and 180 μl of each preparation were added to the wells containing the various Ca/EGTA buffers. Substrate hydrolysis was measured every 5 minutes for 30 minutes. The 1/2 Vmax was determined as the rate of substrate hydrolysis which was 50% of the maximal rate achieved in the presence of the varying amounts of calcium. […] The [Ca^2+ ] activation profiles for both the native and recombinant enzymes are virtually identical. In FIG. 9, open squares with interior open circles represent recombinant human calpain I (rhCANPI). Shaded squares with interior open circles represent native human calpain I (nhCANPI).

[2] = target: T1, recombinant human calpain I (Homo sapiens, UniProt P07384); assay: Calcium activation of recombinant calpain (Succ-Leu-Tyr-MNA hydrolysis); assay type: biochemical; details: pH 7.3, 1 mM Succ-Leu-Tyr-MNA, approximation based on Kd of EGTA, read-out: concentration of calcium required to give 1/2 Vmax
T1 construct: the 2153 bp fragment containing the entire human 80 kDa calpain I cDNA; made in house; host or cells: Spodoptera frugiperda Sf21 cells, recombinant baculovirus (AcNPV-hCANPI-2-5, or coinfection with AcNPV-hCANP30-5 and AcNPV-hCANPI80-5)
T1 sequence (P07384 2-714): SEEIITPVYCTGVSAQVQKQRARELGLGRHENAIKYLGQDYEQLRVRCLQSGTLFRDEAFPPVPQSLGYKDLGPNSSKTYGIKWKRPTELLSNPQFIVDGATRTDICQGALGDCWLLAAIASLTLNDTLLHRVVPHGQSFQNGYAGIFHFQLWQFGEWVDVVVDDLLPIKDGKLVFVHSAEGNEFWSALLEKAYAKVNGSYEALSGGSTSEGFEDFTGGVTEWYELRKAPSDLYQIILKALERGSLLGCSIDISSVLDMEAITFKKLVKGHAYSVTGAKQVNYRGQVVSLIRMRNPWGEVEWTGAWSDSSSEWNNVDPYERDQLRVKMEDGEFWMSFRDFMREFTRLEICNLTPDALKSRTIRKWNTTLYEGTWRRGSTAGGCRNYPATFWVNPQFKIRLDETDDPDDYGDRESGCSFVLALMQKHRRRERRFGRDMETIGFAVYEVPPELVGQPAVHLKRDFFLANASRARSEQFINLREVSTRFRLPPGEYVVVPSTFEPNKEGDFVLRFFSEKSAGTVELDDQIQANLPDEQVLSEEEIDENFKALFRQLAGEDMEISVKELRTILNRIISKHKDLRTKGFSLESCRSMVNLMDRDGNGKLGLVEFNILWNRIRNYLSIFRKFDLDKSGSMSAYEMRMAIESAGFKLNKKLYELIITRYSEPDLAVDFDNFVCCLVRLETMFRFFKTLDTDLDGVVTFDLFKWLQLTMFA
T1 sequence (P04632 1-268 partner): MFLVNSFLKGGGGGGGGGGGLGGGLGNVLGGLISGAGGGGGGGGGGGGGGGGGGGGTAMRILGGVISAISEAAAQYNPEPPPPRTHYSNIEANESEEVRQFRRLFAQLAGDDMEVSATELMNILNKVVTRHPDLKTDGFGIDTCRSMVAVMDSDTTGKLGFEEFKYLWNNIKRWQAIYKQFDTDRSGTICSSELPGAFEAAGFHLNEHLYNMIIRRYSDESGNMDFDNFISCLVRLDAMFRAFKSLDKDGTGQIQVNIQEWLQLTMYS
Protocol: as §1

native calpain I = target: T2, native calpain I (Homo sapiens, UniProt P07384); assay: Inhibitor profile: inhibition of Succ-Leu-Tyr-MNA hydrolysis by native calpain I; assay type: biochemical; details: for difference in IC50 values with respect to the known calpain inhibitors / inhibition of activity: native enzyme
T2 construct: Native and recombinant enzymatically active calpain I were compared; from tissue; host or cells: human erythrocytes (red blood cells)
T2 sequence (P07384 2-714): T1 sequence (P07384 2-714)
T2 sequence (P04632 1-268 partner): T1 sequence (P04632 1-268 partner)
Protocol: (§2) To evaluate inhibitor sensitivities, stocks (40 times concentrated) of each inhibitor to be tested were prepared in 100% anhydrous DMSO and 5 μl of each inhibitor preparation were aliquoted into each of three wells of a 96 well plate. Dilutions of each enzyme preparation were made into assay buffer (i.e., 50 mM Tris, 50 mM NaCl, 1 mM EDTA, 1 mM EGTA, and 5 mM β-mercaptoethanol, pH 7.5 including 0.2 mM Succ-Leu-Tyr-MNA) and 175 μl of each dilution aliquoted into the same wells containing the independent inhibitor stocks as well as to positive control wells containing 5 μl DMSO, but no inhibitor. To start the reaction, 20 μl of 50 mM CaCl2 in assay buffer was added to all wells of the plate, excepting three, which were used as background signal baseline controls. Substrate hydrolysis was monitored every 5 minutes for a total of 30 minutes. […] The rate of hydrolysis was determined as the change in fluorescence units per the 10 minute time period between 5 and 15 minutes. At each inhibitor concentration tested, the percent inhibition was determined as the percent decrease in the rate of substrate hydrolysis in the presence of inhibitor versus the rate in its absence. […] Prototypic inhibitors of serine (PMSF) and aspartic proteases (pepstatin A) were also included in this determination.

[3] = target: T1, recombinant human calpain I; assay: Inhibitor profile: inhibition of Succ-Leu-Tyr-MNA hydrolysis by recombinant calpain I; assay type: biochemical; details: for difference in IC50 values with respect to the known calpain inhibitors / inhibition of activity: recombinant enzyme
Protocol: as §2

rat Na,K-ATPase = details: enzyme from insect cells; cited from earlier work
cells = details: cited from earlier work
[4] = imidazole-HCl/EGTA buffer, pH 7.3; used for approximating [Ca2+]; read-out: Kd of EGTA for calcium; cited from earlier work
native human calpain I [5] = assay: Calcium-dependent protease activity (Succ-Leu-Tyr-AMC), native calpain I; assay type: biochemical; details: 12.5 μM calpain inhibitor I; native human calpain I; FIG. 5a
Protocol: (§3) Sf21 cells were again seeded in 24 well plates at 1.5×10^5 cells/cm^2 and infected with either wild-type virus, coinfected with both AcNPV-hCANP30-5 and AcNPV-hCANPI80-5 (MOI of 5 for each virus), or infected with AcNPV-hCANPI-2-5 (MOI=5.7). The intracellular proteins were harvested at 40 hours after infection with 100 μl/well of the following lysis buffer: 50 mM Tris-HCl, pH 7.5, 50 mM NaCl, 1 mM EDTA, 1 mM EGTA, 5 mM β-mercaptoethanol, 0.1% Triton-100, followed by a 10 minutes centrifugation at 14,000×g at 4° C. to pellet the nuclei and some membranes. The in vitro enzyme activity of 20 μl of each extract (12.5-20 μg of total protein) was measured using the synthetic peptide substrate succinyl-leucine-tyrosine-aminomethyl coumarin (Succ-Leu-Tyr-AMC) at a 1 mM concentration with and without the addition of 5 mM CaCl2 following the procedure of Sasaki et al., J. Biol. Chem., 259:12489-12494 (1984), incorporated herein by reference. The activity obtained was compared with the enzyme activity of 2 μg of partially-purified native human calpain I produced according to the method of Siman et al., supra.
(§4) The activity in the presence of calcium was also measured with the addition of 12.5 μM calpain inhibitor I following the procedure disclosed in Sasaki et al., supra. The results are depicted in FIGS. 5a-d. In FIGS. 5a-d, open circles represent activity without calcium present. […]

[6] = target: T1, recombinant human calpain I; assay: Calcium-dependent protease activity (Succ-Leu-Tyr-AMC), recombinant calpain in Sf21 cell extracts; assay type: biochemical; details: 12.5 μM calpain inhibitor I; recombinant, coinfected or AcNPV-hCANPI-2-5; FIGS. 5c, 5d
Protocol: as §3, §4

[7] = tested on: recombinant 80 kDa subunit of calpain I; assay: Enzymatic activity of independently expressed 80 kDa subunit (Succ-Leu-Tyr-AMC); assay type: biochemical, human; details: 12.5 μM calpain inhibitor I; 33 μg unfractionated extract; FIG. 8
Protocol: as §3, with “The activity obtained was compared with the enzyme activity of 2 μg of partially-purified native human calpain I produced according to the method of Siman et al., supra.” left out
To determine the relative activity of the recombinantly produced 80 kDasubunit, the enzymatic activity of the subunit was examined in unfractionated extracts from Sf21 cells infected with AcNPV-hCANPI80-5. […] The same amount of enzyme activity for both the recombinant 80 kDa subunit and the recombinant calpain was then run on SDS-PAGE and the amount of each was qualitatively determined by immunoblot analysis as described in Example 4 above. […]

neurons = details: rats, clamping both carotid arteries and lowering arterial blood pressure; cited from earlier work
[8] = tested on: EAA-induced protein breakdown; details: in vivo; cited from earlier work
[9] = tested on: vulnerable hippocampal neurons; details: in vivo; cited from earlier work
calpain = details: in vivo; cited from earlier work
[10] = Native calpain, 0.2 mM Succ-Leu-Tyr-MNA, rate between 5 and 15 minutes, read-out: IC50
[11] = Recombinant calpain, 0.2 mM Succ-Leu-Tyr-MNA, rate between 5 and 15 minutes, read-out: IC50

calcium
EC50 (native human calpain I [1]): 15 µM | EC50 [2]: 14 µM

CCCC[C@@H](C=O)NC(=O)[C@H](CC(C)C)NC(=O)OCc1ccccc1 [Z--Leu--Nle--H, Z-Leu-Nle-H]
IC50 (native calpain I; [10]): 0.014 µM | IC50 [3, 11]: 0.01 µM

Na,K-ATPase: functional rat Na,K-ATPase expressed using the baculovirus expression system
activity relative to enzyme from dog kidney outer medulla (rat Na,K-ATPase): 20-25%

O=S(=O)(F)Cc1ccccc1 [PMSF, phenylmethylsulfonyl fluoride]
IC50 (native calpain I): > 1000 µM | difference in IC50 values with respect to the known calpain inhibitors (native calpain I): 5-6 fold order of magnitude | inhibition of activity (native calpain I): insignificant inhibition | IC50 [3]: > 1000 µM | difference in IC50 values with respect to the known calpain inhibitors [3]: 5-6 fold order of magnitude | inhibition of activity [3]: insignificant inhibition

CCNC(=O)C(=O)[C@H](Cc1ccccc1)NC(=O)[C@H](CC(C)C)NC(=O)OCc1ccccc1 [Z--Leu--Phe--CONHEt, Z-Leu-Phe-CONHEt]
IC50 (native calpain I): 0.056 µM | IC50 [3]: 0.034 µM

calpastatin
uptake by cells (cells): not readily taken up by cells

O=C(O)CN(CCOCCOCCN(CC(=O)O)CC(=O)O)CC(=O)O [EGTA]
Kd [4]: 5.5 µM

CCCC[C@@H](C=O)NC(=O)[C@H](CC(C)C)NC(=O)[C@H](CC(C)C)NC(C)=O [calpain inhibitor I] (Ac-Leu-Leu-[Nle]-aldehyde)
inhibition of calcium-dependent substrate hydrolysis (native human calpain I [5]): inhibited | inhibition of calcium-dependent substrate hydrolysis [6]: also inhibited | inhibition of activity [7]: completely inhibited | protection of neurons against ischemic and hypoxic damage (neurons): protected neurons against ischemic and hypoxic damage

CC(C)CC(=O)N[C@H](C(=O)N[C@H](C(=O)N[C@@H](CC(C)C)[C@@H](O)CC(=O)N[C@@H](C)C(=O)N[C@@H](CC(C)C)[C@@H](O)CC(=O)O)C(C)C)C(C)C [Pepstatin A] (Isovaleryl-VV[Sta]A[Sta]-OH)
IC50 (native calpain I; [10]): > 10 µM | difference in IC50 values with respect to the known calpain inhibitors (native calpain I): 5-6 fold order of magnitude | inhibition of activity (native calpain I): insignificant inhibition | IC50 [3, 11]: > 10 µM | difference in IC50 values with respect to the known calpain inhibitors [3]: 5-6 fold order of magnitude | inhibition of activity [3]: insignificant inhibition

CC(=O)N[C@@H](CC(C)C)C(=O)N[C@@H](CC(C)C)C(=O)N[C@H](C=O)CCCNC(=N)N [leupeptin]
lowering EAA-induced protein breakdown [8]: unsuccessful | uptake by cells (cells): failed to enter the cells | protection of neurons against ischemic and hypoxic damage (neurons): protected neurons against ischemic and hypoxic damage | protection against degeneration of hippocampal neurons after ischemia [9]: protected against the degeneration of vulnerable hippocampal neurons after ischemia | block of trauma-evoked calpain response (calpain): block a trauma-evoked calpain response in vivo

CC(C)C[C@H](NC(=O)OCc1ccccc1)C(=O)N[C@@H](CC(C)C)C(=O)N[C@@H](Cc1ccccc1)C(=O)C[S+](C)C [Z--Leu--Leu--Phe--CH2 S(+)Me2 Br(-), Z-Leu-Leu-Phe-CH2 S(+)Me2 Br(-)]
IC50 (native calpain I; [10]): 0.014 µM | IC50 [3, 11]: 0.008 µM
